A value given as a limit tells only on which side of the number the result lay.

Common to all, as to format: biochemical
One assay addresses T1, procaspase-7 (Homo sapiens, UniProt P55210).
T1 construct: His6 (C); made in house; host or cells: E. coli BL21(DE3)RP, pET-21b
T1 sequence (P55210 1-303): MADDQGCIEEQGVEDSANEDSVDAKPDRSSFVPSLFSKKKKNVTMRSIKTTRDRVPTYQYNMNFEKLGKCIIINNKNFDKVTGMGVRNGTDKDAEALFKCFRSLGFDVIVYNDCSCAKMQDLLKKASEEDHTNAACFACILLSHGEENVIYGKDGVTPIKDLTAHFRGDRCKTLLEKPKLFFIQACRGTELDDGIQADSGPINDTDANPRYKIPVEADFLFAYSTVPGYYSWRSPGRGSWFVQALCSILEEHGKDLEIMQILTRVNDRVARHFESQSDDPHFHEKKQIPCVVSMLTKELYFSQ
The assay is described as follows: Executioner procaspase-7 activation assay (Ac-DEVD-AFC fluorogenic substrate). The conditions noted are these: incubation with compound for 5 h at 37° C.; 100 nM procaspase. Here is the method: (§1) The executioner procaspase-3, -6 and -7 activation assay protocol involves incubating the target protein at the physiologically-relevant concentration of 100 nM with activating compounds (ranging from 100 nM to 100 uM) in a total volume of 50 μL consisting of a reaction buffer of 50 mM HEPES, pH 7.4, 50 mM KCl, 1 mM DTT and 0.01% Triton-X100 (to reduce false positive hits due to compound aggregation). The procaspase/small molecule incubations are then agitated at 37° C. and assayed at various time points by addition of the fluorogenic peptide substrate 7-Amino-4-trifluoromethylcoumarin-DEVD (Ac-DEVD-AFC) (procaspases-3, -7) or Ac-VEID-AFC (procaspase-6) to a final concentration of 25 μM and analyzed by a kinetic 30 minute assay (excitation 365 nm and emission 495 nm). The final concentration of DMSO in each well is 3% and has no effect on enzyme stability or activity. […] All components of the assay including protein, substrate and inhibitor are stored as frozen aliquots and thawed immediately prior to the assay.
(§2) Tables 1 and 2. Procaspase activation as a result of incubation with compound for 5 h at 37° C. (+++ EC50˜0.5-10 μM; ++ EC50˜10-50 μM; + EC50˜50-200 μM; -no activation observed; ND not determined).

The target of a further assay is T2, procaspase-6 (Homo sapiens, UniProt P55212).
T2 sequence (P55212 1-293): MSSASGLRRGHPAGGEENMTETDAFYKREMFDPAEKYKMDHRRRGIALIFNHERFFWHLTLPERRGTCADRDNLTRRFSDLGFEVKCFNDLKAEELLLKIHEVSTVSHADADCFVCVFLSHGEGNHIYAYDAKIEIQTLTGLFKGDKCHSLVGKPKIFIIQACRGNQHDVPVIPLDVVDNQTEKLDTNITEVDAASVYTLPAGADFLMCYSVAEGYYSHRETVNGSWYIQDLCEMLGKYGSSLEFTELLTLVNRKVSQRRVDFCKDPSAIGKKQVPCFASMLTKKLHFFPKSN
The assay is described as follows: Executioner procaspase-6 activation assay (Ac-VEID-AFC fluorogenic substrate). The settings on record: incubation with compound for 5 h at 37° C.; 100 nM procaspase. As for the experimental part:
as §1, §2

A further assay addresses T3, procaspase-3 (Homo sapiens, UniProt P42574).
T3 construct: His6 (C); made in house; host or cells: E. coli BL21(DE3)RP, pET-23b
T3 sequence (P42574 1-277): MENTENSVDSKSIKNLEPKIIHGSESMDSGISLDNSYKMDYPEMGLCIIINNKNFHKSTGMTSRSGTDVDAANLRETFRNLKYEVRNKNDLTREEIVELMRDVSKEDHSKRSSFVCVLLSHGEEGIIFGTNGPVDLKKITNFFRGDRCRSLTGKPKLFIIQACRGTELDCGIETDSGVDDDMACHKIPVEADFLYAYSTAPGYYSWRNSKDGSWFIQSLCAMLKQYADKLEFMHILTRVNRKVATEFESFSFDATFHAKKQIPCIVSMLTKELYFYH
Description: Executioner procaspase-3 activation assay (Ac-DEVD-AFC fluorogenic substrate). The conditions noted are these: incubation with compound for 5 h at 37° C.; 100 nM procaspase; read-out: Procaspase Activation 3. As for the experimental part: The executioner procaspase-3, -6 and -7 activation assay protocol involves incubating the target protein at the physiologically-relevant concentration of 100 nM with activating compounds (ranging from 100 nM to 100 uM) in a total volume of 50 μL consisting of a reaction buffer of 50 mM HEPES, pH 7.4, 50 mM KCl, 1 mM DTT and 0.01% Triton-X100 (to reduce false positive hits due to compound aggregation). […] All components of the assay including protein, substrate and inhibitor are stored as frozen aliquots and thawed immediately prior to the assay.

As for `O=C(Nc1cccc(-c2nc3ccccc3[nH]2)c1)c1cc2cccc(O)c2oc1=O` [compound 15, 8-Hydroxy-2-oxo-2H-chromene-3-carboxylic acid [3-(1H-benzoimidazol-2-yl)-phenyl]-amide], the EC50 on procaspase-7, on procaspase-6 and on procaspase-3 was more than 100 µM each time.
Consider `O=C(Nc1cccc(N2CCOCC2)c1)c1cc2cccc(O)c2oc1=O` [compound 16, 8-Hydroxy-2-oxo-2H-chromene-3-carboxylic acid (3-morpholin-4-yl-phenyl)-amide], for which the EC50 on procaspase-7, on procaspase-6 and at procaspase-3 was more than 100 µM each time.
As to `O=C(Nc1cccc(-c2cccnc2)c1)c1cc2cccc(O)c2oc1=O` [compound 17, 8-Hydroxy-2-oxo-2H-chromene-3-carboxylic acid (3-pyridin-3-yl-phenyl)-amide], the EC50 at procaspase-7, at procaspase-6 and on procaspase-3 was more than 100 µM in each case.
For the molecule `COc1cccc2cc(C(=O)Nc3cccc(-c4cccnc4)c3)c(=O)oc12` [compound 18, 8-Methoxy-2-oxo-2H-chromene-3-carboxylic acid (3-pyridin-3-yl-phenyl)-amide], the EC50 on procaspase-7, on procaspase-6 and at procaspase-3 was more than 100 µM throughout.
As for `O=C(Nc1cccc(-c2ccncc2)c1)c1cc2cccc(O)c2oc1=O` [compound 19, 8-Hydroxy-2-oxo-2H-chromene-3-carboxylic acid (3-pyridin-4-yl-phenyl)-amide], the EC50 on procaspase-7 was 50 to 200 µM; on procaspase-6 it was 0.5 to 10 µM; on procaspase-3 it was 0.5 to 10 µM.
Regarding `CCOc1ncccc1-c1cccc(NC(=O)c2cc3cccc(O)c3oc2=O)c1` [compound 41, 8-Hydroxy-2-oxo-2H-chromene-3-carboxylic acid [3-(2-ethoxy-pyridin-3-yl)-phenyl]-amide], the results for the EC50 at procaspase-7, at procaspase-6 and on procaspase-3 were more than 100 µM, 50 to 200 µM and 10 to 50 µM, respectively.
For `CCOc1ncccc1-c1cccc(NC(=O)c2cc3cccc(OC)c3oc2=O)c1` [compound 42, 8-Methoxy-2-oxo-2H-chromene-3-carboxylic acid [3-(2-ethoxy-pyridin-3-yl)-phenyl]-amide], in that order: more than 100 µM, more than 100 µM and more than 100 µM.
Consider `CCOc1ncccc1-c1cccc(NC(=O)c2cc3cccc(OC(F)(F)F)c3oc2=O)c1` [compound 43, 8-Trifluoromethoxy-2-oxo-2H-chromene-3-carboxylic acid [3-(2-ethoxy-pyridin-3-yl)-phenyl]-amide], for which the EC50 on procaspase-7, on procaspase-6 and at procaspase-3 was more than 100 µM in each case.
Consider `COc1ccc(-c2cccc(NC(=O)c3cc4cccc(O)c4oc3=O)c2)cc1` [compound 44, 8-Hydroxy-2-oxo-2H-chromene-3-carboxylic acid (4′-Methoxy-biphenyl-3-yl)-amide], for which the values for the EC50 on procaspase-7, at procaspase-6 and on procaspase-3 were 0.5 to 10 µM, more than 100 µM and more than 100 µM, respectively.
For `COc1ccc(-c2cccc(NC(=O)c3cc4cccc(OC(F)(F)F)c4oc3=O)c2)cc1` [compound 46, 8-Trifluoromethoxy-2-oxo-2H-chromene-3-carboxylic acid (4′-Methoxy-biphenyl-3-yl)-amide], the EC50 at procaspase-7, at procaspase-6 and on procaspase-3 was more than 100 µM in each case.
As for `COc1ccc(-c2cccc(NC(=O)c3cc4cccc(O)c4oc3=O)c2)cc1C` [compound 47, 8-Hydroxy-2-oxo-2H-chromene-3-carboxylic acid (4′-Methoxy-3′-methyl-biphenyl-3-yl)-amide], the EC50 on procaspase-7, on procaspase-6 and at procaspase-3 was more than 100 µM each time.
Take `COc1ccc(-c2cccc(NC(=O)c3cc4cccc(OC)c4oc3=O)c2)cc1C` [compound 48, 8-Methoxy-2-oxo-2H-chromene-3-carboxylic acid (4′-Methoxy-3′-methyl-biphenyl-3-yl)-amide]: the EC50 on procaspase-7, on procaspase-6 and on procaspase-3 was more than 100 µM throughout.
In the case of `COc1ccc(-c2cccc(NC(=O)c3cc4cccc(OC(F)(F)F)c4oc3=O)c2)cc1C` [compound 49, 8-Trifluoromethoxy-2-oxo-2H-chromene-3-carboxylic acid (4′-Methoxy-3′-methyl-biphenyl-3-yl)-amide], the EC50 at procaspase-7, at procaspase-6 and at procaspase-3 was more than 100 µM throughout.
In the case of `COc1ccc(-c2cccc(NC(=O)c3cc4cccc(O)c4oc3=O)c2)c(OC)c1` [compound 50, 8-Hydroxy-2-oxo-2H-chromene-3-carboxylic acid (2′,4′-dimethoxy-biphenyl-3-yl)-amide], the EC50 on procaspase-7, on procaspase-6 and on procaspase-3 was more than 100 µM each time.
Consider `COc1ccc(-c2cccc(NC(=O)c3cc4cccc(OC)c4oc3=O)c2)c(OC)c1` [compound 51, 8-Methoxy-2-oxo-2H-chromene-3-carboxylic acid (2′,4′-dimethoxy-biphenyl-3-yl)-amide], for which the EC50 on procaspase-7, on procaspase-6 and at procaspase-3 was more than 100 µM throughout.
In the case of `COc1ccc(-c2cccc(NC(=O)c3cc4cccc(OC(F)(F)F)c4oc3=O)c2)c(OC)c1` [compound 52, 8-Trifluoromethoxy-2-oxo-2H-chromene-3-carboxylic acid (2′,4′-dimethoxy-biphenyl-3-yl)-amide], the EC50 on procaspase-7, at procaspase-6 and at procaspase-3 was more than 100 µM each time.
Regarding `COc1ccc(-c2cccc(NC(=O)c3cc4cccc(O)c4oc3=O)c2)cc1OC` [compound 53, 8-Hydroxy-2-oxo-2H-chromene-3-carboxylic acid (3′,4′-Dimethoxy-biphenyl-3-yl)-amide], the results for the EC50 at procaspase-7, on procaspase-6 and at procaspase-3 were 0.5 to 10 µM, more than 100 µM and more than 100 µM, respectively.
Turning to `COc1ccc(-c2cccc(NC(=O)c3cc4cccc(OC)c4oc3=O)c2)cc1OC` [compound 54, 8-Methoxy-2-oxo-2H-chromene-3-carboxylic acid (3′,4′-Dimethoxy-biphenyl-3-yl)-amide], the EC50 at procaspase-7, on procaspase-6 and on procaspase-3 was more than 100 µM in each case.
For the molecule `COc1ccc(-c2cccc(NC(=O)c3cc4cccc(OC(F)(F)F)c4oc3=O)c2)cc1OC` [compound 55, 8-Trifluoromethoxy-2-oxo-2H-chromene-3-carboxylic acid (3′,4′-Dimethoxy-biphenyl-3-yl)-amide], the EC50 on procaspase-7, on procaspase-6 and at procaspase-3 was more than 100 µM each time.
Consider `COc1ccc(OC)c(-c2cccc(NC(=O)c3cc4cccc(O)c4oc3=O)c2)c1` [compound 56, 8-Hydroxy-2-oxo-2H-chromene-3-carboxylic acid (2′,5′-dimethoxy-biphenyl-3-yl)-amide], for which the EC50 at procaspase-7, on procaspase-6 and at procaspase-3 was more than 100 µM throughout.
On to `COc1cccc2c1OCC(C(=O)Nc1cccc(-c3cn4ccccc4n3)c1)=C2` [compound 182, 8-Methoxy-2H-chromene-3-carboxylic acid (3-imidazo[1,2-a]pyridin-2-yl-phenyl)-amide], for which the EC50 at procaspase-6 and at procaspase-3 was more than 100 µM throughout.

Source of the values: US8642788B2, “Activators of executioner procaspases 3, 6 and 7” (The Regents of the University of California, priority 2008, dated 2014).
